Measured values taken from article PMC11492426, “Design, synthesis, and biological evaluation of novel quinoline-based EGFR/HER-2 dual-target inhibitors as potential anti-tumor agents” (RSC Advances, 2024).

Experiments:
[1] = system: four human cancer cell lines (A-549, MCF-7, Panc-1, HT-29); assay: Antiproliferative assay, average over four cancer cell lines; format: cell-based; conditions: Homo sapiens, average IC50 over the four cancer cell lines
HER2 = HER2 (Homo sapiens, UniProt P04626); assay: HER2 inhibitory assay (ADP-Glo kinase assay)
Caspase-3 = Caspase-3 activation assay in MCF-7 cells; format: cell-based, human; conditions: for Caspase-3 Conc.: treated at IC50 concentration; for Caspase-3 Fold change: versus untreated control
EGFR = EGFR (Homo sapiens, UniProt P00533); assay: EGFR inhibitory assay (EGFR-TK assay)
[2] = system: A-549 lung cancer cell line; assay: Antiproliferative assay, A-549; format: cell-based; conditions: Homo sapiens, A549; A-549 lung cancer cells; read-out: Antiproliferative activity IC50 ± SEM, A-549
Bcl-2 = Bcl-2 inhibition assay in MCF-7 cells; format: cell-based, human; conditions: for Bcl-2 Conc.: treated at IC50 values
Procedure: Additionally, the treatment led to a notable reduction in anti-apoptotic Bcl-2 expression levels, with a fold decrease of roughly 6 for compound 3e and 8 for compound 5a. Compounds 3e and 5a markedly elevated the Bax/Bcl-2 ratio compared to the control untreated cells. […]
4.2.8. Bcl-2 inhibition assay
Mix all reagents thoroughly without foaming before use. Wash the microwells twice with approximately 300 μL Wash Buffer per well with thorough aspiration of microwell contents between washes. Take caution not to scratch the surface of the microwells. After the last wash, empty the wells and tap microwell strips on absorbent pad or paper towel to remove excess Wash Buffer. Use the microwell strips immediately after washing or place upside down on a wet absorbent paper for not […]
longer than 15 minutes. […] Add 100 μL of Sample Diluent in duplicate to all standard wells and to the blank wells. Prepare standard (1:2 dilution) in duplicate ranging from 32 ng/mL to 0.5 ng/mL. Add 100 μL of Sample Diluent, in duplicate, to the blank wells. Add 80 μL of Sample Diluent, in duplicate, to the sample wells. Add 20 μL of each Sample, in duplicate, to the designated wells. Add 50 μL of diluted biotin-conjugate to all wells, including the blank wells. Cover with a plate cover and incubate at room temperature, on a microplate shaker at 100 rpm if available, for 2 hours. Remove plate cover and empty the wells. Wash microwell strips 3 times as described in step 2. Add 100 μL of diluted Streptavidin-HRP to all wells, including the blank wells. Cover with a plate cover and incubate at room temperature, on a microplate shaker at 100 rpm if available, for 1 hour. Remove plate cover and empty the wells. Wash microwell strips 3 times as described in step 2.
Proceed to the next step. Pipette 100 μl of mixed TMB Substrate Solution to all wells, including the blanks. Incubate the microwell strips at room temperature (18° to 25°C) for about 15 minutes, if available on a rotator set at 100 rpm. Avoid direct exposure to intense light. The point, at which the substrate reaction is stopped, is often determined by the ELISA reader. Many ELISA readers record absorbance only up to 2.0 O.D. Therefore, the color development within individual microwells must be watched by the person running the assay and the substrate reaction stopped before positive wells are no longer properly detectable. Stop the enzyme reaction by quickly pipetting 100 μL of Stop Solution into each well, including the blank wells. It is important that the Stop Solution is spread quickly and uniformly throughout the microwells to completely inactivate the enzyme. Results must be read immediately after the Stop Solution is added or within one hour if the microwell strips are stored at 2 - 8°C in the dark. Read absorbance of each microwell on a spectrophotometer using 450 nm as the primary wavelength.
4.3. Statistical analysis
Computerized Prism 5 program was used to statistically analyzed data using one-way ANOVA test followed by Tukey’s as post ANOVA for multiple comparison at P ≤.05. Data were presented as […]

[3] = system: MCF-7 breast cancer cell line; assay: Antiproliferative assay, MCF-7; format: cell-based; conditions: Homo sapiens, MCF7; MCF-7 breast cancer cells; read-out: Antiproliferative activity IC50 ± SEM, MCF-7

Sequence of HER2 (P04626 676-1255 limits assumed): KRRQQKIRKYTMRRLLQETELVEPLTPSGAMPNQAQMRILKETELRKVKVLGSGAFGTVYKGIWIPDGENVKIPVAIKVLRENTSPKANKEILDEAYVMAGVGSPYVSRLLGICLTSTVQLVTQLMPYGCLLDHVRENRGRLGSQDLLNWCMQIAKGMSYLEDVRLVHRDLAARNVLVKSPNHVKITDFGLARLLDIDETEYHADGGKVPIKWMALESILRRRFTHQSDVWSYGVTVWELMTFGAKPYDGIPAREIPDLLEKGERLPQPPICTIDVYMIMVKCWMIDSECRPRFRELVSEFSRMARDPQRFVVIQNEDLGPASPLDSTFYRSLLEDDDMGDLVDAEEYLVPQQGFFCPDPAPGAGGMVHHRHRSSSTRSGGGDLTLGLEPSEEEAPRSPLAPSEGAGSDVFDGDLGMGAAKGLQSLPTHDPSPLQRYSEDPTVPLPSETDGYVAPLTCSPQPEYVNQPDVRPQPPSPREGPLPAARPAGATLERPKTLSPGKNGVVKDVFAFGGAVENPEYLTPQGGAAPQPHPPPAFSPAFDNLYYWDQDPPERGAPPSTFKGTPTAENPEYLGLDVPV
Sequence of EGFR (P00533 669-1210): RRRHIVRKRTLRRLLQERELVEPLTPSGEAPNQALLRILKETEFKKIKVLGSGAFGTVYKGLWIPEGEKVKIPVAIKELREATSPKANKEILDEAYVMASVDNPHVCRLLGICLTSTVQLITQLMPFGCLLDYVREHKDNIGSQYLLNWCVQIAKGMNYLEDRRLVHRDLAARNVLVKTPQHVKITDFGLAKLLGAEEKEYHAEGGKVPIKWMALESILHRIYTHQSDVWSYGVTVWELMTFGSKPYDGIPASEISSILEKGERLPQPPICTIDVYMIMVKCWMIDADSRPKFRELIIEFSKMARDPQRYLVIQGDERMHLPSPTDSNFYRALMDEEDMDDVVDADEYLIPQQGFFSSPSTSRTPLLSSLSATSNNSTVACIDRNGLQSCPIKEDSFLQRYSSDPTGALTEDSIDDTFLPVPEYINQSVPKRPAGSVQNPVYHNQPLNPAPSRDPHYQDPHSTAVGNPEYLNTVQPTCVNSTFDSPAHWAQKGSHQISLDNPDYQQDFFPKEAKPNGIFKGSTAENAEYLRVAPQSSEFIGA

melting point | GI50 [1] | IC50 (HER2) | IC50 (EGFR) | IC50 [2] | IC50 [3] | SMILES | Caspase-3 Conc. (Caspase-3) | Caspase-3 Fold change (Caspase-3) | Bcl-2 Conc. (Bcl-2) | Bcl-2 Fold reduction (Bcl-2; versus untreated control)
327 to 329 °C | 33 nM | 39 ± 2 nM | 79 ± 5 nM | 32 ± 3 nM | 31 ± 3 nM | O=c1[nH]c2ccccc2c(O)c1/C=N/c1nc(-c2ccncc2)n[nH]1 [Compound 3e, (E)-4-hydroxy-3-(((3-(pyridin-4-yl)-1H-1,2,4-triazol-5-yl)imino)methyl)quinolin-2(1H)-one] | 587 ± 5 pg/mL | 9 | 0.84 ng/mL | 
 | 25 nM | 31 ± 2 nM | 71 ± 4 nM | 25 ± 2 nM | 23 ± 2 nM | O=c1[nH]c2ccccc2c(O)c1C=Nc1ccc(NS(=O)(=O)c2ncccn2)cc1 [Compound 5a, N-(4-(((4-hydroxy-2-oxo-1,2-dihydroquinolin-3-yl)methylene)amino)phenyl) pyrimidine-2-sulfonamide] | 710 ± 6 pg/mL | 11 | 0.62 ng/mL | ~8
